In patent US20070092942A1, “Ubiquitin specific enzymes of family herpesviridae” (priority 2005, published 2007):

What was measured:
UL36^USP = experiment: Electrophilic probe labeling of HSV-1 infected HFF cell lysates, immunoblot; format: binding; details: for Labeling / reaction of UL36^USP by electrophilic probe: HSV-infected HFF lysates, immunoblot
Method: HFFs were infected with HSV-1 KOS at an MOI of 10 and harvested by trypsinolysis at the indicated times post infection. Cells were washed 1× in PBS and pelleted by centrifugation in a microcentrifuge at 3,000×g for 20 minutes at 4° C. Cells were lysed by adding 2× the pellet volume of NP40 lysis buffer (150 mM NaCl, 50 mM Tris pH 7.4, 5 mM MgCl2, 0.5 mM EDTA, 2 mM DTT, 2 mM ATP, 0.5% NP40) and rocking at 4° C. for 1 hour. Cell lysates were centrifuged at 12,000×g for 20 minutes at 4° C. Protein concentration of supernatants was established by Bradford assay and lysates were standardized to 5 μg/μl by the addition of the required volume of NP40 lysis buffer. For each labeling reaction, 50 μg of lysate was incubated with 0.8 μg of probe in a total volume of 60 μL of homogenization buffer (50 mM Tris pH 7.5, 5 mM MgCl2, 0.5 mM EDTA, 2 mM DTT, 2 mM ATP, 250 mM sucrose). For reactions involving NEM, lysates were incubated at room temperature for 30 minutes with 5 mM NEM prior to addition of probe. Reactions were incubated for 30 minutes at R.T. Samples were boiled in reducing sample buffer and separated by SDS-PAGE. Proteins were transferred to PVDF membranes and immunoblotted with mouse monoclonal anti-HA antibody (12CA5) at 1:4000 dilution followed by goat anti-mouse IgG-HRP (Southern Biotech) at 1: 10,000 dilution. Blots were developed using Western Lightning chemiluminescence reagent (Perkin Elmer).
To profile DUB activity during HSV-1 infection, we used HA-tagged Ub-vinylmethyl ester (HAUbVME) (Borodovsky et al., 2002). Human foreskin fibroblasts (HFFs) were infected with HSV-1 at a multiplicity of infection of 10, harvested at 4, 6, 9, 12, 22 and 30 hours post-infection (p.i.), and lysed.
To address whether UL36^USP labeling by HAUbVME was a consequence of the Ub or the VME moiety, we incubated lysates of HSV-infected HFFs at 24 hours p.i. with related electrophilic derivatives (Borodovsky et al., 2002). […] There are a number of Ub-like (UbL) proteins in eukaryotes (Larsen and Wang, 2002). This family of UbL proteins has diversified functionally to cover many cellular pathways: SUMO proteins function in nuclear signaling and transcription (Hay, 2005); ISG15 is an interferon-inducible gene product (Ritchie and Zhang, 2004); and the closest homolog of Ub, Nedd8, is an activator of the cullin family of E3 Ub ligases (Petroski and Deshaies, 2005; Willems et al., 2004). Probes derived from Ub and UbL modifiers target proteases that are either specific for a single Ub/UbL or selective for a limited number of these proteases (Borodovsky et al., 2002; Hemelaar et al., 2004). We explored the reactivity of UL36^USP with Ub and UbL-derived probes to determine its specificity. We incubated lysates of mock-infected and HSV-infected HFFs at 24 hours p.i. with either HAUbVME or with one of three UbL probes, HA-SUMO-1-VME, HA-ISG15-VME or FLAG-Nedd8-VS (FIG. 4B).

His6UL36^USP = biological target: T1, His6UL36^USP (Human herpesvirus 1, UniProt P10220); experiment: Cleavage of Ub-AMC by recombinant UL36^USP; format: biochemical, HSV-1; details: 10 pmol inhibitor pre-incubated 30 minutes with ~0.1 pmol enzyme
T1 construct: amino acids 1 to 533 of the UL36 gene product from HHV HSV1; 6-His (pET-28a(+)) (N); 6-His (pET-28a(+)) (C); made in house; host or cells: E. coli BL21 or BL21 RIPL
Method: Recombinant UL36^USP and UL36^USP/C65A (˜0.1 pmol) were incubated in 125 μl kinetics buffer (50 mM HEPES, pH 7.5, 0.5 mM EDTA) supplemented with 1 mM DTT at room temperature for 10 minutes. To this was added 75 μl of Ub-AMC (250 nM in kinetics buffer) and AMC liberation was measured at 25° C. For inhibition experiments, one of UbVME, SUMO-VME, ISG15-VS, or Nedd8-VS (10 pmol) was incubated with recombinant UL36^USP (˜0.1 pmol) for 30 minutes at room temperature. To this was added 75 μl of Ub-AMC (250 nM in kinetics buffer) and AMC liberation was measured. Cleavage experiments were performed in triplicate. All fluorescence measurements were made using a Wallac Victor^3 1420 fluorescence/luminescence plate reader (Perkin Elmer) using 380 nm excitation and 460 nm emission wavelengths, with 5 second intervals between measurements. Data were exported as an Excel file and plotted as mean values of replicate experiments using Kaleidagraph v3.6 (Synergy Software).
In a typical eukaryotic cell, the presence of multiple DUBs, whose substrate pool and catalytic activities may overlap, confounds straightforward analysis of the activity of any one particular DUB. Although we have found excellent correlation between labeling of polypeptides with the Ub/UbL probes and their identification as active DUBs, the probes are covalent inactivators and cannot be used to assess enzymatic (i.e. catalytic) peptidase activity. To validate the activity of UL36^USP as a protease with specificity for Ub-modified substrates, we cloned a sequence spanning the 533 N-terminal amino acids of HSV-1 UL36^USP into a His-tagged expression vector (His6-UL36^USP). We also generated a point mutant of this construct in which the active site cysteine residue, Cys^65, was replaced by alanine (His6UL36^USP/C65A). The proteins were expressed, purified over Ni-NTA resin and evaluated for their ability to cleave Ub C-terminal 7-amido-4-methylcoumarin (Ub-AMC) (Dang et al., 1998). […] The results are consistent with the labeling experiments using UbL probes with HSV-1-infected lysates (FIG. 4B).

[1] = biological target: T2, EBV205 (AA 1-205 of EBV BPLF1) (Epstein-Barr virus, UniProt P03186); format: binding
T2 construct: encoding for AA 1-205 of EBV (EBV205) and AA 1-285 of mCMV (mCMV285); His-tag (pET28) (N); made in house; host or cells: E. coli BL21-DE3
Text: (§1) To investigate functionality of this minimal DUB consensus domain we cloned the relevant genomic fragments for heterologous expression and subsequent biochemical characterization. The corresponding DNA fragments, encoding for AA 1-205 of EBV (EBV205) and AA 1-285 of mCMV (mCMV285), were PCR-cloned into pET28 according to standard procedures. Following expression in E. coli BL21-DE3, the fragments bearing a N-terminal His-tag were purified using a Ni-NTA resin (Qiagen) and subsequently subjected to a gel filtration column (S75 HiLoad, Amersham Pharmacia Biotech) equilibrated in storage buffer (50 mM Tris, 50 mM KCl, 50 mM NaCl, 0.5 mM EDTA, 2 mM DTT, 10% (v/v) glycerol, pH 7.5) to achieve apparent homogeneity. To address whether the purified constructs display DUB activity, we used HA-tagged Ub-vinylmethyl ester (HAUbVME), a probe that acts as suicide substrate for DUBs by forming a thioether bond to the active site cysteine. Reactions were performed using final concentrations of 1 μM enzyme (EBV205 or mCMV285) in the absence and presence of 2 μM HAUbVME in reaction buffer (50 mM Tris, 100 mM NaCl, 1 mM DTT pH 7.5) for 30 min at 37° C. Following incubation, samples were boiled in reducing sample buffer and subjected to SDS-PAGE.
(§2) In the case of mCMV, we also constructed a longer variant that terminates at position 575 (mCMV575).

[2] = tested on: mCMV285, mCMV575 (mCMV UL36 homologue); experiment: HAUbVME labeling of purified recombinant mCMV285 / mCMV575, SDS-PAGE and immunoblot; format: binding, mouse cytomegalovirus
Text: as §1, §2

mCMV285, mCMV575 = experiment: UbAMC hydrolysis assay with mCMV285 and mCMV575; format: biochemical, mouse cytomegalovirus; details: enzyme 100 pM, Ub-AMC 100 nM
Method: (§3) We next tested the ability of the enzymes to cleave Ub-AMC (Ub C-terminal 7-amido-4-methylcoumarin, Boston Biochem). UbAMC hydrolysis assays were performed in reaction buffer supplemented with BSA (50 μg/ml) by incubating the enzymes (100 pM) with a large excess of Ub-AMC (100 nM). […] To address this issue, we tested the potential of several inhibitors to block DUB activity in Ub-AMC hydrolysis assays. Enzymes were preincubated for 1 h with a 100-fold molar excess of electrophilic derivatives of Ub, SUMO, NEDD8, and ISG15, all carrying a VME moiety as the electrophile at their C-terminus.

EBV205 = biological target: T3, EBV205 (Epstein-Barr virus, UniProt P03186); format: biochemical; details: enzyme 100 pM, Ub-AMC 100 nM
T3 construct: encoding for AA 1-205 of EBV (EBV205) and AA 1-285 of mCMV (mCMV285); His-tag (pET28) (N); made in house; host or cells: E. coli BL21-DE3
Method: as §3

[3] = 1 μM enzyme, 2 μM HAUbVME, 30 min at 37° C.
[4] = preincubated 1 h with 100-fold molar excess of inhibitor
[5] = pretreatment with 10 mM NEM for 10 min

## HA-SUMO-1-VME: UbL probe (12.8 kDa), HA-tagged SUMO-1 vinylmethyl ester
UL36^USP
  Labeling / reaction of UL36^USP by electrophilic probe: did not observe reaction

## Nedd8-VS: electrophilic Nedd8 vinylsulfone derivative used as inhibitor
His6UL36^USP
  Inhibition of Ub-AMC cleavage by His6UL36^USP: rates nearly identical to hydrolysis in the absence of these inhibitors

## HAUbVME: HA-tagged Ub-vinylmethyl ester, electrophilic Ub probe forming thioether bond to DUB active site cysteine
UL36^USP
  Labeling / reaction of UL36^USP by electrophilic probe: observed labeling
[1]; [3]
  Covalent modification of EBV205 by probe (shift in electrophoretic mobility): covalent modification
[2]; [3]
  Covalent modification of mCMV285 by probe (shift in electrophoretic mobility): covalent modification

## HAUbVS: HAUb-vinylsulfone, Ub-derived electrophilic probe
UL36^USP
  Labeling / reaction of UL36^USP by electrophilic probe: comparably robust labeling

## UbVME: electrophilic derivative of Ub carrying a VME moiety at its C-terminus, covalent DUB inhibitor
His6UL36^USP
  Inhibition of Ub-AMC cleavage by His6UL36^USP: complete inhibition
mCMV285, mCMV575; [4]
  Inhibition of UbAMC hydrolytic activity of mCMV285 / mCMV575: completely inhibited
EBV205; [4]
  Inhibition of UbAMC hydrolytic activity of EBV205: completely inhibited

## CCN1C(=O)C=CC1=O [NEM, N-ethylmaleimide]
UL36^USP; HSV-1 infected HFF lysates, 5 mM NEM 30 minutes prior to probe
  Effect on labeling of the 57 kDa polypeptide with HAUbVME: inhibited
[1]; [5]
  Effect on labeling of EBV205 with HAUbVME probe: completely blocked labeling
mCMV285, mCMV575
  Sensitivity of UbAMC hydrolysis by mCMV285 / mCMV575 to NEM: sensitive to NEM
[2]; mCMV575 variant
  Effect on reaction of mCMV575 with HAUbVME: NEM-sensitive
[2]; [5]
  Effect on labeling of mCMV285 with HAUbVME probe: completely blocked labeling
EBV205
  Sensitivity of UbAMC hydrolysis by EBV205 to NEM: sensitive to NEM

## SUMO-1-VS: electrophilic SUMO-1 derivative used as inhibitor
His6UL36^USP
  Inhibition of Ub-AMC cleavage by His6UL36^USP: rates nearly identical to hydrolysis in the absence of these inhibitors

## ISG15-VS: electrophilic ISG15 derivative used as inhibitor
His6UL36^USP
  Inhibition of Ub-AMC cleavage by His6UL36^USP: rates nearly identical to hydrolysis in the absence of these inhibitors

## FLAG-Nedd8-VS: UbL probe (9.7 kDa), FLAG-tagged Nedd8 vinylsulfone
UL36^USP
  Labeling / reaction of UL36^USP by electrophilic probe: did not observe reaction

## HA-ISG15-VME: UbL probe (18.8 kDa), HA-tagged ISG15 vinylmethyl ester
UL36^USP
  Labeling / reaction of UL36^USP by electrophilic probe: did not observe reaction
